Patent publication US6967196B1, “Sulfonamide compounds and uses thereof” (Bristol-Myers Squibb Company, priority 1999, dated 2005)
pIC50: −log10 of the molar value. Read-outs that look alike come from different tables or passages of the source.

System: amyloid β production in transfected H4 (human neuroglioma) cells stably expressing APP constructs
Assay: In vitro cell-based assay of inhibitors of amyloid β production (ELISA)
Conditions: amyloid β in medium by ELISA, read-out: ACTIVITY (IC50, inhibition of amyloid β production)
Experimental: In Vitro Cell-Based Assay of Inhibitors of Amyloid β Production
Transfected H4 (human neuroglioma) cells stably expressing APP constructs are used to identify and assess inhibitors of Aβ production. In brief, cells lines are exposed to compounds, and the effect of each compound on amyloid β production is determined by measuring the amount of amyloid β produced using an enzyme linked immunosorbent assay (ELISA) that detects amyloid β (see, for example, Seubert et al., (1992) Nature, 359:325-327).
Transfected cells that stably express wild-type and variant forms of APP are plated in 96-well format plates at a density sufficient for the rapid detection of the secreted amyloid β (experimentally predetermined for a particular stable cell population). Cells are plated at least six hours prior to the introduction of the test compound at which time the growth medium is replaced by fresh medium containing the compound to be tested. All synthetic agents are initially screened at doses ranging from 10-100 μM. Higher dilutions of agents can be used to minimize cytotoxicity. Incubation of cells with a test compound continues for approximately 16 hours at which time aliquots of medium from each well are removed and assayed for amyloid β.
ELISA is carried out by methods known in the art (see, e.g., Haass et al., Antibodies: A Laboratory Manual, Harlow and lane, Editors, Cold Spring Harbor Press, 1988) The capture antibody is typically a mouse monoclonal (IgG1/kβ-APPa) which recognizes the carboxyl terminal epitope of amyloid β. The specificity of the capture antibody insures measurement of amyloid β without interference from other secreted APP fragments that share amino acid sequence (amyloid β 1-16) homology with amyloid β but lack the carboxy-terminal region. The detecting antibody is typically an affinity-purified rabbit polyclonal antibody that is specific for the amino terminus of amyloid β.
Results from test compounds are compared to results obtained when cells are treated with control agents. Amyloid β levels are determined by comparison to a standard curve obtained by subjecting a range of known amounts of amyloid β to the ELISA.
A compound is identified as “active” when it inhibits cellular production of amyloid β relative to levels in control samples by at least 50% at the initial tested concentration without significant cytotoxicity. Active compounds are then assayed in dose-response experiments to determine the lowest dose of compound necessary for inhibition of amyloid β production.

[1] = transfected H4 cells stably expressing APP, approx. 16 h incubation
[2] = transfected H4 cells stably expressing APP, approximately 16 hours incubation
[3] = transfected H4 cells stably expressing APP, approximately 16 hours incubation, Table B
[4] = transfected H4 cells stably expressing APP constructs, approximately 16 hours incubation

Substance | pIC50 [1] | pIC50 [2] | other results
2-((1R)-1-{[(4-chlorophenyl)sulfonyl]-2,5-difluoroanilino}ethyl)benzyl sec-butylcarbamate [Example 758] | 6.30 to 7.00 | – | –
2-({[(4-chlorophenyl)sulfonyl]-2,5-difluoroanilino}methyl)phenyl acrylate [Example 681] | 6.30 to 7.00 | – | –
2-({[(4-chlorophenyl)sulfonyl]anilino}methyl)phenyl trifluoromethanesulfonate [Example 1004] | – | < 6.30 | –
2-[2-(1-{[(4-chlorophenyl)sulfonyl]-2,5-difluoroanilino}ethyl)phenoxy]-N-methylacetamide [Example 1064] | – | < 6.30 | –
2-[2-((1R)-1-{[(4-chlorophenyl)sulfonyl]-2,5-difluoroanilino}ethyl)-5-fluorophenyl]ethyl 2,5-difluorobenzylcarbamate [Example 358] | – | – | pIC50 [3]: 7.00 to 7.30
2-[2-((1R)-1-{[(4-chlorophenyl)sulfonyl]-2,5-difluoroanilino}ethyl)phenyl]ethyl 1,2,3,4-tetrahydro-1-naphthalenylcarbamate [Example 644] | 6.30 to 7.00 | – | –
2-[2-((1R)-1-{[(4-chlorophenyl)sulfonyl]-2,5-difluoroanilino}ethyl)phenyl]ethyl 3,4-difluorobenzylcarbamate [Example 726] | 6.30 to 7.00 | – | –
2-[2-((1R)-1-{[(4-chlorophenyl)sulfonyl]-2,5-difluoroanilino}ethyl)phenyl]ethyl phenylcarbamate [Example 762] | 6.30 to 7.00 | – | –
2-[2-((1R)-1-{[(4-chlorophenyl)sulfonyl]-2,5-difluoroanilino}ethyl)phenyl]ethyl sec-butylcarbamate [Example 650] | 6.30 to 7.00 | – | –
2-bromo-N-{3-(2-({[(4-chlorophenyl)sulfonyl]-2,5-difluoroanilino}methyl)phenoxy]propyl}-N-methylbenzamide [Example 641] | 6.30 to 7.00 | – | –
2-chloro-N-{3-[2-(1-{[(4-chlorophenyl)sulfonyl]-2,5-difluoroanilino}methyl)phenoxy]propyl}-N-methylbenzamide [Example 774] | 6.30 to 7.00 | – | –
3,4-dichloro-N-{3-[2-(1-{[(4-chlorophenyl)sulfonyl]-2,5-difluoroanilino}ethyl)phenoxy]propyl}-N-methylbenzamide [Example 847] | – | 6.30 to 7.00 | –
3,4-dichloro-N-{3-[2-(1-{[(4-chlorophenyl)sulfonyl]-2,5-difluoroanilino}ethyl)phenoxy]propyl}-N-methylbenzenesulfonamide [Example 822] | – | 6.30 to 7.00 | –
3,4-dichloro-N-{3-[2-({[(4-chlorophenyl)sulfonyl]-2,5-difluoroanilino}methyl)phenoxy]propyl}-N-methylbenzamide [Example 932] | – | < 6.30 | –
3,5-dichloro-N-{3-[2-(1-{[(4-chlorophenyl)sulfonyl]-2,5-difluoroanilino}ethyl)phenoxy]propyl}-N-methylbenzamide [Example 950] | – | < 6.30 | –
3,5-dichloro-N-{3-[2-({[(4-chlorophenyl)sulfonyl]-2,5-difluoroanilino}methyl)phenoxy]propyl}-N-methylbenzamide [Example 1002] | – | < 6.30 | –
3-(2-{[(phenylsulfonyl)anilino]methyl}phenyl)propanoic acid [Example 993] | – | < 6.30 | –
3-((4R)-4-{[(4-chlorophenyl)sulfonyl]-2,5-difluoroanilino}-7-fluoro-1,2,3,4-tetrahydro-1-naphthalenyl)propanoic acid [Example 1007] | – | < 6.30 | –
3-[2-(2-{[(4-chlorophenyl)sulfonyl]-2,5-difluoroanilino}-1-methylethyl)-5-fluorophenyl]butanoic acid [Example 940] | – | < 6.30 | –
3-[2-((1R)-1-{[(4-chlorophenyl)sulfonyl]-2,5-difluoroanilino}ethyl)-5-fluorophenyl]-1-propanesulfonic acid [Example 881] | – | < 6.30 | –

Substance | pIC50 [1] | pIC50 [2] | other results
3-[2-((1R)-1-{[(4-chlorophenyl)sulfonyl]-2,5-difluoroanilino}ethyl)phenyl]-N-(2,5-difluorobenzyl)propanamide [Example 383] | – | – | pIC50 [3]: 7.00 to 7.30
3-[2-((1R)-1-{[(4-chlorophenyl)sulfonyl]-2,5-difluoroanilino}ethyl)phenyl]-N-isopropylpropanamide [Example 655] | 6.30 to 7.00 | – | –
3-[2-((1R)-1-{[(4-chlorophenyl)sulfonyl]-2,5-difluoroanilino}ethyl)phenyl]propyl benzyl(methyl)carbamate [Example 763] | 6.30 to 7.00 | – | –
3-[2-((1R)-1-{[(4-chlorophenyl)sulfonyl]-2,5-difluoroanilino}ethyl)phenyl]propyl phenylcarbamate [Example 730] | 6.30 to 7.00 | – | –
3-bromo-N-{3-[2-(1-{[(4-chlorophenyl)sulfonyl]-2,5-difluoroanilino}ethyl)phenoxy]propyl}-N-methylbenzamide [Example 820] | – | 6.30 to 7.00 | –
3-bromo-N-{3-[2-(1-{[(4-chlorophenyl)sulfonyl]-2,5-difluoroanilino}ethyl)phenoxy]propyl}-N-methylbenzenesulfonamide [Example 806] | – | 6.30 to 7.00 | –
3-bromo-N-{3-[2-(1-{[(4-chlorophenyl)sulfonyl]-2,5-difluoroanilino}ethyl)phenoxy]propyl}benzamide [Example 829] | – | 6.30 to 7.00 | –
3-chloro-N-{3-[2-(1-{[(4-chlorophenyl)sulfonyl]-2,5-difluoroanilino}ethyl)phenoxy]propyl}-N-methylbenzamide [Example 688] | 6.30 to 7.00 | – | –
3-chloro-N-{3-[2-(1-{[(4-chlorophenyl)sulfonyl]-2,5-difluoroanilino}ethyl)phenoxy]propyl}-N-methylbenzenesulfonamide [Example 684] | 6.30 to 7.00 | – | –
3-chloro-N-{3-[2-(1-{[(4-chlorophenyl)sulfonyl]-2,5-difluoroanilino}ethyl)phenoxy]propyl}benzamide [Example 900] | – | < 6.30 | –
4-[2-((1R)-1-{[(4-chlorophenyl)sulfonyl]-2,5-difluoroanilino}ethyl)-5-fluorophenyl]-N-(cyanomethoxy)butanamide [Example 1079] | – | < 6.30 | –
4-[2-({[(2-nitrophenyl)sulfonyl]anilino}methyl)phenyl]butanoic acid [Example 1097] | – | – | pIC50 [4]: < 5.00
4-benzoyl-N-((1S)-1-{{(3-[2-({[(4-chlorophenyl)sulfonyl]-2,5-difluoroanilino}methyl)phenoxy]propyl}(methyl)amino]carbonyl}-5-{[5-(2-oxohexahydro- [Example 1053] | – | < 6.30 | –
4-bromo-N-{3-[2-(1-{[(4-chlorophenyl)sulfonyl]-2,5-difluoroanilino}ethyl)phenoxy]propyl}-N-methylbenzamide [Example 683] | 6.30 to 7.00 | – | –
4-butoxy-N-{3-[2-({[(4-chlorophenyl)sulfonyl]-2,5-difluoroanilino}methyl)phenoxy]propyl}-N-methylbenzamide [Example 817] | – | 6.30 to 7.00 | –
4-chloro-2-({[(4-chlorophenyl)sulfonyl]anilino}methyl)phenyl trifluoromethanesulfonate [Example 1090] | – | – | pIC50 [4]: < 5.00
4-chloro-N-(2,5-dichlorophenyl)-N-[3-[2-[4-chloro-N-(2,5-dichlorophenyl)-N-[(3-amino)-1(R)-methylpropyl]benzenesulfonamide]-3,4-dioxo-1-cyclobutenyl)amine-1(R)- [Example 1143] | – | – | pIC50 [4]: 6.30 to 7.00
4-chloro-N-(2,5-dichlorophenyl)-N-[5-(1,1-dioxido-4-thiomorpholinyl)-1(R)-methylpropyl]benzenesulfonamide [Example 1104] | – | – | pIC50 [4]: ≥ 7.60
4-chloro-N-(2,5-dichlorophenyl)-N-[5-[[2-[(methylsulfonyl)-1-piperidinyl]-1(R)-methylpentyl]benzenesulfonamide [Example 1116] | – | – | pIC50 [4]: 7.30 to 7.60
4-chloro-N-(2,5-difluorophenyl)-N-((1R)-1-{2-[3-(1H-imidazol-1-yl)propoxy]-6-methoxybenzyl}benzenesulfonamide hydrochloride [Example 911] | – | < 6.30 | –
